Measurements published in ChEMBL document CHEMBL1201862, “PubChem BioAssay data set” (2004).
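Values below derive from 48-hour exposures of cells grown in 96-well plates, with endpoints linearly interpolated between the two concentrations bracketing the appropriate inhibition level. At the GI50, growth is halved.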 Calls of active or inactive are those of the source. Cut-off read from the data, not from the text of the source: active = GI50 up to about 1.1 µM and inactive = higher. Where a SMILES comes first, the peptide text is derived from it. The star is where a group is joined. OSu = O=C1CCC(=O)N1O*; OBn = c1ccc(CO*)cc1; Bn = c1ccc(C*)cc1

Legend:
Assay in all cases: NCI-60 cell line screen, 48 h
[1] = test system: SK-OV-3
[2] = test system: SK-MEL-28
[3] = test system: PC-3
[4] = test system: NCI/ADR-RES
[5] = test system: CCRF-CEM
[6] = test system: HOP-92
[7] = test system: A498
[8] = test system: IGROV-1
[9] = test system: HT-29
[10] = test system: HCC 2998
[11] = test system: 786-0
[12] = test system: SK-MEL-2
[13] = test system: Hs-578T
[14] = test system: EKVX
[15] = test system: SF-539
[16] = test system: UACC-62
[17] = test system: NCI-H460
[18] = test system: BT-549
[19] = test system: SR

Measured: GI50

CCC(=O)N(c1ccccc1)C(C)CN1CCC(O)(c2cccc(C(F)(F)F)c2)CC1 (centres undefined)
inactive: [1] 52.6 µM | [2] 23.1 µM | [3] 19.3 µM | [4] 19.5 µM | [5] 19.9 µM | [6] 22.8 µM | [7] 26.8 µM | [8] 59.2 µM | [9] 13 µM | [10] 26.5 µM | [11] 18.5 µM | [12] 20.9 µM | [13] 34.8 µM | [14] 31.8 µM | [15] 23.2 µM | [16] 22.1 µM

CCN(CC)CCn1c(C(C)(C)C)nc2ccccc21
inactive: [1] > 100 µM | [2] > 100 µM | [17] > 100 µM | [3] > 100 µM | [4] > 100 µM | [5] > 100 µM | [6] > 100 µM | [8] > 100 µM | [9] > 100 µM | [10] > 100 µM | [11] 18.7 µM | [14] > 100 µM | [15] > 100 µM | [18] 36.1 µM | [19] > 100 µM | [16] > 100 µM

C=CCC1NCCC2=C1C(S(=O)(=O)c1ccc(C)cc1)c1ccccc12 (centres undefined)
inactive: [1] 16.6 µM | [2] 12.4 µM | [17] 11.7 µM | [3] 10.4 µM | [4] 12.6 µM | [5] 7.96 µM | [6] 9.95 µM | [7] 19 µM | [8] 8.11 µM | [9] 16 µM | [10] 1.85 µM | [11] 12.9 µM | [12] 13.5 µM | [13] 13.7 µM | [14] 18 µM | [19] 3.64 µM | [16] 11.7 µM

c1csc(-c2nn3c(C45CC6CC(CC(C6)C4)C5)nnc3s2)c1
inactive: [1] > 100 µM | [2] > 100 µM | [17] > 100 µM | [3] > 100 µM | [4] > 100 µM | [5] > 100 µM | [6] > 100 µM | [7] > 100 µM | [8] > 100 µM | [9] > 100 µM | [10] > 100 µM | [11] > 100 µM | [12] > 100 µM | [13] > 100 µM | [14] > 100 µM | [15] > 100 µM | [19] > 100 µM | [16] > 100 µM

Cc1ccc(S(=O)(=O)NC(=O)Nc2ccc(C(=O)O)c(O)c2)cc1
inactive: [1] > 100 µM | [17] > 100 µM | [3] > 100 µM | [4] > 100 µM | [5] > 100 µM | [6] > 100 µM | [7] 68.2 µM | [9] > 100 µM | [10] > 100 µM | [11] > 100 µM | [12] > 100 µM | [13] > 100 µM | [14] > 100 µM | [15] > 100 µM | [19] > 100 µM | [16] > 100 µM

CC(C)CC(NC(=O)C(N)CCC(=O)OCc1ccccc1)C(=O)NC(COCc1ccccc1)C(=O)NC(Cc1ccccc1)C(=O)ON1C(=O)CCC1=O (centres undefined) (H-E(OBn)LS(Bn)F-OSu; configuration not given here)
inactive: [1] 25.4 µM | [2] 22.1 µM | [17] 32.7 µM | [3] 24.5 µM | [4] 28.5 µM | [5] 26.6 µM | [6] 15 µM | [8] 23.4 µM | [9] 38.2 µM | [11] 39.1 µM | [12] 30.8 µM | [13] 26.4 µM | [14] 32.1 µM | [19] 28.6 µM | [16] 26.1 µM

O=C(O)CCC(NC(=O)c1ccc(CNc2nc3ccccc3nc2C(=O)O)cc1)C(=O)O (centres undefined)
inactive: [1] > 100 µM | [2] > 100 µM | [3] > 100 µM | [4] > 100 µM | [5] > 100 µM | [7] > 100 µM | [8] > 100 µM | [9] > 100 µM | [11] > 100 µM | [12] > 100 µM | [13] > 100 µM | [14] > 100 µM | [19] > 100 µM | [16] > 100 µM

CCCCN(CCCC)CC(O)c1cc(-c2ccc(C(F)(F)F)cc2)nc(-c2ccc(C(F)(F)F)cc2)c1 (centres undefined)
inactive: [1] > 100 µM | [2] > 100 µM | [17] > 100 µM | [3] 55 µM | [4] > 100 µM | [5] 50.9 µM | [6] 61.5 µM | [7] > 100 µM | [8] > 100 µM | [9] > 100 µM | [10] 22.6 µM | [11] 61.1 µM | [12] > 100 µM | [14] 39.4 µM | [15] > 100 µM | [19] > 100 µM | [16] > 100 µM

CN1C(CC(O)c2ccccc2)CCCC1CC(O)(c1ccccc1)c1ccccc1 (centres undefined)
inactive: [1] 21.4 µM | [2] 16 µM | [3] 18.2 µM | [4] 16.9 µM | [5] 19.8 µM | [8] 17.2 µM | [9] 12.1 µM | [10] 22.9 µM | [11] 15.7 µM | [14] 26.4 µM | [15] 13.6 µM | [19] 18.7 µM | [16] 21 µM

CCOC(OCC)[C@@H]1C[C@@H]2N(O[C@H](OC3CCCC3(c3ccccc3)c3ccccc3)[C@H](OC(C)=O)[C@@]2(CC)Cc2ccc(OC)c(OC)c2)O1 (some centres undefined)
inactive: [1] > 100 µM | [2] > 100 µM | [17] > 100 µM | [3] > 100 µM | [4] > 100 µM | [5] > 100 µM | [8] > 100 µM | [9] > 100 µM | [10] > 100 µM | [11] > 100 µM | [12] > 100 µM | [14] > 100 µM | [15] > 100 µM | [18] > 100 µM | [19] 84.7 µM | [16] > 100 µM

CCOC(=O)CCC(NC(=O)c1ccc(NCc2ccc3nc(OC)c(OC)nc3c2)c2ccccc12)C(=O)OCC (centres undefined)
inactive: [1] 31 µM | [2] > 100 µM | [17] > 100 µM | [3] 61.4 µM | [4] > 100 µM | [6] 16.2 µM | [7] 61.8 µM | [8] 31.8 µM | [9] > 100 µM | [10] > 100 µM | [11] 26.2 µM | [12] > 100 µM | [14] > 100 µM | [15] 20.8 µM | [18] > 100 µM | [16] 73.8 µM

O=C(Nc1ccc([N+](=O)[O-])cc1)C1C(=O)C(=O)N(c2ccc([N+](=O)[O-])cc2)C1=O (centres undefined)
inactive: [1] > 100 µM | [2] > 100 µM | [17] 34.5 µM | [5] > 100 µM | [6] > 100 µM | [7] > 100 µM | [8] > 100 µM | [9] > 100 µM | [10] > 100 µM | [11] 67.1 µM | [12] > 100 µM | [14] > 100 µM | [15] 94.8 µM | [19] 59 µM | [16] 2.72 µM
